Source: ChEMBL document CHEMBL5537177, “Discovery of Potent Antimalarial Type II Kinase Inhibitors with Selectivity over Human Kinases” (J Med Chem, 2024)
Active and inactive are the calls of the source. The calls are words filed in the database; no cut-off is given here.

How the values were obtained:
Ephrin type-A receptor 2 = Ephrin type-A receptor 2 (Homo sapiens, UniProt P29317); assay: Inhibition of human EphA2 by FRET assay
Plasmodium falciparum [1] = assay: Antiplasmodial activity against multidrug-resistant Plasmodium falciparum Dd2 at ring stage infected in A+ erythrocytes assessed as parasite growth reduction incubated for 72 hrs by SYBR Green I dye based analysis; assay type: functional, organism-based; settings: Dd2, Erythrocyte
[2] = Selectivity index, ratio of EC50 for human HepG2 cells to EC50 for multidrug-resistant Plasmodium falciparum Dd2 at ring stage infected in A+ erythrocytes; assay type: toxicity, cell-based; settings: read-out: Ratio EC50
[3] = Selectivity index, ratio of EC50 for human MCF7 cells to EC50 for multidrug-resistant Plasmodium falciparum Dd2 at ring stage infected in A+ erythrocytes; assay type: toxicity, cell-based; settings: read-out: Ratio EC50
[4] = Metabolic stability in mouse liver microsomes assessed as half life; assay type: ADME, Liver cells
[5] = Metabolic stability in mouse liver microsomes assessed as intrinsic clearance; assay type: ADME, Liver cells
[6] = Half life in mouse at 2 mg/kg, iv; assay type: ADME, organism-based; settings: in vivo
[7] = Cmax in mouse at 2 mg/kg, iv; assay type: ADME, organism-based; settings: in vivo
[8] = AUC (last) in mouse at 2 mg/kg, iv; assay type: ADME, organism-based; settings: in vivo
[9] = Clearance in mouse at 2 mg/kg, iv; assay type: ADME, organism-based; settings: in vivo
[10] = Volume of distribution at steady state in mouse at 2 mg/kg, iv; assay type: ADME, organism-based; settings: in vivo, read-out: Vdss
[11] = Half life in mouse at 10 mg/kg, po; assay type: ADME, organism-based; settings: in vivo
[12] = Clearance in mouse at 10 mg/kg, po; assay type: ADME, organism-based; settings: in vivo
Plasmodium berghei [13] = assay: Antimalarial activity against Plasmodium berghei sporozoites expressing luciferase infected in human HepG2-A16-CD81 cells assessed as reduction in parasite growth incubated for 18 hrs; assay type: functional, organism-based; settings: HepG2-A16-CD81, 18 h
Plasmodium berghei [14] = assay: Antimalarial activity against blood-stage Plasmodium berghei sporozoites expressing GFP-Luc SMcon infected in Swiss Webster mouse assessed as reduction in parasitemia at 15 mg/kg, iv pre-infected with mouse RBC containing Plasmodium berghei sporozoites followed by compound administration measured for 2 to 16 days post-infection by SYBR Green I dye based flow cytometry; assay type: functional, organism-based; settings: Erythrocyte, time 2-16 day
Plasmodium berghei [15] = assay: Antimalarial activity against […] Plasmodium berghei sporozoites expressing GFP-Luc SMcon infected in Swiss Webster mouse assessed as reduction in parasitemia at 15 mg/kg, iv pretreated for 6 hrs followed by parasite infection measured after 2 to 6 days post-infection by IVIS imaging analysis; assay type: functional, organism-based; settings: time 2.25-6.25 day
Plasmodium falciparum [16] = assay: Parasiticidal activity against asynchronous blood-stage Plasmodium falciparum Dd2 at 10 times EC50 treated for 12 hrs followed by compound washout and measured for 4 days by flow cytometry; assay type: functional, organism-based
Plasmodium falciparum [17] = assay: Antimalarial activity against synchronous blood-stage Plasmodium falciparum 3D7 assessed as duration of lag phase at 10 times EC50 treated every 24 hrs for 120 hrs followed by compound washout and subsequent addition of RBCs measured after 21 days by parasite reduction ratio assay; assay type: functional
Plasmodium falciparum [18] = assay: Antimalarial activity against synchronous blood-stage Plasmodium falciparum 3D7 assessed as log of parasite reduction ratio at 10 times EC50 treated every 24 hrs for 120 hrs followed by compound washout and subsequent addition of RBCs measured after 21 days; assay type: functional
Plasmodium falciparum [19] = assay: Antimalarial activity against synchronized Plasmodium falciparum Dd2 assessed as parasite growth inhibition at ring stage at 5 times EC50 treated 6 hrs post-invasion measured after 54 hrs post-invasion by Geimsa staining based microscopy; assay type: functional, organism-based; settings: time 48.0 hrs
Plasmodium falciparum [20] = assay: Antimalarial activity against synchronized Plasmodium falciparum Dd2 at 5 times EC50 treated 42 hrs post-invasion measured after 54 hrs post-invasion by YOYO-1 staining based flow cytometry; assay type: functional, organism-based; settings: time 12.0 hrs
Plasmodium falciparum [21] = assay: Antimalarial activity against synchronized Plasmodium falciparum Dd2 assessed as reduction in parasite growth at early asexual stage treated 16 hrs post-invasion measured after 72 hrs by SYBR green I dye based microscopy; assay type: functional, organism-based
Plasmodium falciparum [22] = assay: Antimalarial activity against synchronized Plasmodium falciparum Dd2 assessed as reduction in parasite growth at early asexual stage treated 36 hrs post-invasion measured after 72 hrs by SYBR green I dye based microscopy; assay type: functional, organism-based
Plasmodium falciparum [23] = assay: (§1) Antimalarial activity against artemisinin-sensitive synchronized early ring stage Plasmodium falciparum IPC 5188 (MRA-1239) clinical isolate assessed as decrease in parasite survival at ring stage at 10 times EC50 treated for 6 hrs followed by compound removal measured after 72 hrs by geimsa staining based microscopy; assay type: functional, organism-based
Plasmodium falciparum [24] = assay: as §1, with “artemisinin-resistant” for “artemisinin-sensitive”, “5202 (MRA-1240)” for “5188 (MRA-1239)”; assay type: functional, organism-based
Plasmodium falciparum [25] = assay: as §1, with “artemisinin/piperaquine-resistant” for “artemisinin-sensitive”, “6261 (MRA-1284)” for “5188 (MRA-1239)”; assay type: functional, organism-based
Plasmodium falciparum [26] = assay: as §1, with “48” for “6”; assay type: functional, organism-based
Plasmodium falciparum [27] = assay: as §1, with “artemisinin/piperaquine-resistant” for “artemisinin-sensitive”, “6261 (MRA-1284)” for “5188 (MRA-1239)”, “48” for “6”; assay type: functional, organism-based
Plasmodium falciparum [28] = assay: (§2) Antimalarial activity against synchronized early ring stage Plasmodium falciparum 3D7 (MRA-152) clinical isolate assessed as decrease in parasite survival at ring stage at 10 times EC50 treated for 6 to 48 hrs followed by compound removal measured after 72 hrs by geimsa staining based microscopy; assay type: functional, organism-based
Plasmodium falciparum [29] = assay: as §1, with “artemisinin/piperaquine-sensitive” for “artemisinin-sensitive”, “6 to 48” for “6”; assay type: functional, organism-based
Plasmodium falciparum [30] = assay: as §2, with “against artemisinin/piperaquine-resistant” for “against”, “IPC 6261 (MRA-1284)” for “3D7 (MRA-152)”; assay type: functional, organism-based
Plasmodium falciparum [31] = assay: Antimalarial activity against patient-derived ring-stage Plasmodium falciparum clinical isolate from Patongo town of Uganda infected in O+ RBCs assessed as reduction in parasitemia incubated for 72 hrs by SYBR green I dye based analysis; assay type: functional, organism-based, RBC; settings: Erythrocyte
Plasmodium falciparum [32] = assay: Antimalarial activity against patient-derived ring-stage Plasmodium falciparum clinical isolate from Busiu town of Uganda infected in O+ RBCs assessed as reduction in parasitemia incubated for 72 hrs by SYBR green I dye based analysis; assay type: functional, organism-based, RBC; settings: Erythrocyte
Plasmodium falciparum [33] = assay: Antimalarial activity against ring-stage Plasmodium falciparum 3D7 infected in O+ RBCs assessed as reduction in parasitemia incubated for 72 hrs by SYBR green I dye based analysis; assay type: functional, organism-based, RBC; settings: 3D7, Erythrocyte
Plasmodium falciparum [34] = assay: Antimalarial activity against Plasmodium falciparum harboring AcAS A597V mutation assessed as reduction in parasitemia incubated for 72 hrs by SYBR green I dye based analysis; assay type: functional, organism-based
Plasmodium falciparum [35] = assay: Antimalarial activity against Plasmodium falciparum harboring PI4K S1320L mutation assessed as reduction in parasitemia incubated for 72 hrs by SYBR green I dye based analysis; assay type: functional, organism-based
Plasmodium falciparum [36] = assay: Resistance development in blood-stage Plasmodium falciparum Dd2-B2 assessed as drug irresistibility at 1 to 2 times EC50 measured till death; assay type: functional, organism-based
Plasmodium falciparum [37] = assay: Antimalarial activity in ring-stage Plasmodium falciparum Dd2-B2 infected in human O+ erythrocytes assessed as reduction in parasitemia incubated for 72 hrs by SYBR Green I/ MitoTracker Deep Red dye based flow cytometry; assay type: functional, organism-based; settings: Dd2-B2, 72 h
Plasmodium falciparum [38] = assay: Antimalarial activity in blood-stage Plasmodium falciparum Dd2-B2 infected in human O+ erythrocytes assessed as minimum inoculum of resistance at 3 times […] measured for 50 days by blood smear analysis; assay type: functional; settings: time 50 day
Plasmodium falciparum [39] = assay: microbe, parasite or virus in culture; settings: Dd2, 72 h
Description: Antimalarial activity against wild-type Plasmodium falciparum Dd2 assessed as reduction in parasitemia incubated for 72 hrs by SYBR green I dye based analysis

Sequence of Ephrin type-A receptor 2 (P29317 whole entry): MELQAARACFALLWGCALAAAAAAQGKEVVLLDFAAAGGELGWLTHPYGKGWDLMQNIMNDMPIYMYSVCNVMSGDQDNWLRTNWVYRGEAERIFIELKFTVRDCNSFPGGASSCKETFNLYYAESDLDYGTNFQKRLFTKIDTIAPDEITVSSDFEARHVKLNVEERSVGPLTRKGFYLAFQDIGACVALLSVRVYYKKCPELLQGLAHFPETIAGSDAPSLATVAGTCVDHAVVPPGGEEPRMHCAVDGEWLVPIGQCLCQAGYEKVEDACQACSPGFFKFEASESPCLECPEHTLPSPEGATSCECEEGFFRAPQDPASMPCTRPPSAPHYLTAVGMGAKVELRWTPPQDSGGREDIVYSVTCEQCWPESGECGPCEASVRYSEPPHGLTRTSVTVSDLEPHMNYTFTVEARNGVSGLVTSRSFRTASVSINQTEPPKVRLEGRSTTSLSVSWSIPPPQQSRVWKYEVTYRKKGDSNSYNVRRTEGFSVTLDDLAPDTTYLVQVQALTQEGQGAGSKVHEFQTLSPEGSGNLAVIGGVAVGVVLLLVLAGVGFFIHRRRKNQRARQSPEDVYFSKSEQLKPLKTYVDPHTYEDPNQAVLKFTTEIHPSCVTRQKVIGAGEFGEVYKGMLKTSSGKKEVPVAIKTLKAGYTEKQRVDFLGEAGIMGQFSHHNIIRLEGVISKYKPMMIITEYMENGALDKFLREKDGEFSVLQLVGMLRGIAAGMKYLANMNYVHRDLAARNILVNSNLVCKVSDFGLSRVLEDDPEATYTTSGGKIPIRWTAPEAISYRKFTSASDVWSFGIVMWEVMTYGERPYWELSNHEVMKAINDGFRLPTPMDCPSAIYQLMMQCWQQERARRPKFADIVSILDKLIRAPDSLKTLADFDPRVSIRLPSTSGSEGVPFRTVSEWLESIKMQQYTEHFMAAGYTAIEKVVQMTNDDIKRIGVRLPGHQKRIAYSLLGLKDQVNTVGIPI

CCN1CCN(Cc2ccc(NC(=O)c3cc(Cl)cc(NC(=O)c4cncc(-c5cccs5)c4)c3)cc2C(F)(F)F)CC1
IC50 (Ephrin type-A receptor 2): > 10000 nM
EC50 (Plasmodium falciparum [1]): 58 nM
selectivity ratio [2]: 45
selectivity ratio [3]: 61
t1/2 [4]: 1.32 h
intrinsic clearance [5]: 9 µL/min/mg
half-life [6]: 4.16 h
Cmax [7]: 11100 ng/mL
AUC(0-t) [8]: 6860 ng·h/mL
clearance [9]: 4.3 mL/min/kg
Vd [10]: 0.84 L/kg
half-life [11]: 5.71 h
CL/F [12]: 109 mL/min/kg
EC50 (Plasmodium berghei [13]): 1770 nM
Activity (Plasmodium berghei [14]): Active
Activity (Plasmodium berghei [15]): Active
Activity (Plasmodium falciparum [16]): Active
Time (Plasmodium falciparum [17]): 0 h
log(activity) (Plasmodium falciparum [18]): 3.75
inhibition (Plasmodium falciparum [19]): Active
Activity (Plasmodium falciparum [20]): Active
EC50 (Plasmodium falciparum [21]): 37.2 nM
EC50 (Plasmodium falciparum [22]): 80 nM
Activity (Plasmodium falciparum [23]): inactive
Activity (Plasmodium falciparum [24]): inactive
Activity (Plasmodium falciparum [25]): inactive
Activity (Plasmodium falciparum [26]): Active
Activity (Plasmodium falciparum [27]): Active
EC50 (Plasmodium falciparum [28]): 61.1 nM
EC50 (Plasmodium falciparum [29]): 73.7 nM
EC50 (Plasmodium falciparum [30]): 108 nM
EC50 (Plasmodium falciparum [31]): 9.2 nM
EC50 (Plasmodium falciparum [32]): 9.2 nM
EC50 (Plasmodium falciparum [33]): 10.2 nM
EC50 (Plasmodium falciparum [34]): 40.5 nM
EC50 (Plasmodium falciparum [35]): 59.2 nM
Activity (Plasmodium falciparum [36]): Active
EC50 (Plasmodium falciparum [37]): 40.6 nM
Activity (Plasmodium falciparum [38]): >7
EC50 (Plasmodium falciparum [39]): 51.2 nM
